Results from ChEMBL document CHEMBL1122304, “Synthesis and antiallergy activity of 5-oxo-5H-thiazolo[2,3-b]quinazolinecarboxylic acids” (1983).

Experiments:
Type in all cases: functional
Rattus norvegicus [1] = assay: Antiallergic activity in the rat passive cutaneous anaphylaxis (PCA) test upon peroral administration; settings: po, read-out: ID50 (the source's name)
Rattus norvegicus [2] = assay: Antiallergic activity in the rat passive cutaneous anaphylaxis (PCA) test at 32 mg/kg upon peroral administration; settings: route oral
Rattus norvegicus [3] = assay: Antiallergic activity in the rat passive cutaneous anaphylaxis (PCA) test at 16 mg/kg upon intraperitoneal administration; settings: ip
Rattus norvegicus [4] = assay: Antiallergic activity in the rat passive cutaneous anaphylaxis (PCA) test at 32 mg/kg upon peroral administration after 10-minute pretreatment time; settings: route oral
Rattus norvegicus [5] = assay: Antiallergic activity in the rat passive cutaneous anaphylaxis (PCA) test upon intraperitoneal administration of 16 mg/kg of the compound; settings: ip
Rattus norvegicus [6] = assay: Antiallergic activity in the rat passive cutaneous anaphylaxis (PCA) test upon peroral administration; (range of 0.89-6.85); settings: po, read-out: ID50 (the source's name)
Rattus norvegicus [7] = assay: Antiallergic activity in the rat passive cutaneous anaphylaxis (PCA) test at 32 mg/kg upon peroral administration with a 10-minute pretreatment time; settings: route oral
Rattus norvegicus [8] = assay: Antiallergic activity in the rat passive cutaneous anaphylaxis (PCA) test upon peroral administration; (range = 0.98-4.02); settings: po, read-out: ID50 (the source's name)
Rattus norvegicus [9] = assay: Antiallergic activity in the rat passive cutaneous anaphylaxis (PCA) test upon peroral administration;(range = 0.07-0.23); settings: po, read-out: ID50 (the source's name)
Rattus norvegicus [10] = assay: Antiallergic activity in the rat passive cutaneous anaphylaxis (PCA) test upon peroral administration; (range = 0.08-0.18); settings: po, read-out: ID50 (the source's name)
Rattus norvegicus [11] = assay: Antiallergic activity in the rat passive cutaneous anaphylaxis (PCA) test upon peroral administration; (range = 0.58-1.91); settings: po, read-out: ID50 (the source's name)
Rattus norvegicus [12] = assay: Antiallergic activity in the rat passive cutaneous anaphylaxis (PCA) test upon peroral administration; (range = 0.04-0.14); settings: po, read-out: ID50 (the source's name)
Rattus norvegicus [13] = assay: Antiallergic activity in the rat passive cutaneous anaphylaxis (PCA) test upon peroral administration; (range = 0.18-0.61); settings: po, read-out: ID50 (the source's name)
Rattus norvegicus [14] = assay: Antiallergic activity in the rat passive cutaneous anaphylaxis (PCA) test upon peroral administration; (range = 2.14-29.01); settings: po, read-out: ID50 (the source's name)
Rattus norvegicus [15] = assay: Antiallergic activity in the rat passive cutaneous anaphylaxis (PCA) test upon intraperitoneal administration of 8 mg/kg of the compound; settings: ip

## Cc1cn2c(=O)c3cc(C(=O)O)ccc3nc2s1
Rattus norvegicus [1]
  ED50: > 10 mg/kg
Rattus norvegicus [2]
  inhibition in vivo at 32 mg/kg: 79%

## CC(C)c1cc2c(=O)n3cc(C(=O)O)ccc3nc2s1
Rattus norvegicus [2]
  inhibition in vivo at 32 mg/kg: 54%
Rattus norvegicus [3]
  inhibition in vivo at 16 mg/kg: 89%

## CC(C)c1cc(C(C)C)c2nc3sc(C(=O)O)cn3c(=O)c2c1
Rattus norvegicus [1]
  ED50: > 10 mg/kg
Rattus norvegicus [2]
  inhibition in vivo at 32 mg/kg: 19%
Rattus norvegicus [3]
  inhibition in vivo at 16 mg/kg: 100%

## CC(C)Cc1ccc2nc3sc(C(=O)O)cn3c(=O)c2c1
Rattus norvegicus [4]
  inhibition in vivo at 32 mg/kg: 78%
Rattus norvegicus [5]
  inhibition in vivo at 16 mg/kg: 62%
Rattus norvegicus [6]
  ED50: 2.12 mg/kg

## C[S+]([O-])c1ccc2nc3sc(C(=O)O)cn3c(=O)c2c1 (stereo unspecified)
Rattus norvegicus [7]
  inhibition in vivo at 32 mg/kg: 67%
Rattus norvegicus [8]
  ED50: 1.82 mg/kg
Rattus norvegicus [5]
  inhibition in vivo at 16 mg/kg: 55%

## CSc1ccc2nc3sc(C(=O)O)cn3c(=O)c2c1
Rattus norvegicus [9]
  ED50: 0.12 mg/kg
Rattus norvegicus [2]
  inhibition in vivo at 32 mg/kg: 87%

## CC(C)c1cn2c(=O)c3cc(C(=O)O)ccc3nc2s1
Rattus norvegicus [10]
  ED50: 0.11 mg/kg
Rattus norvegicus [2]
  inhibition in vivo at 32 mg/kg: 100%
Rattus norvegicus [5]
  inhibition in vivo at 16 mg/kg: 100%

## CCC(C)c1ccc2nc3sc(C(=O)O)cn3c(=O)c2c1 (stereo unspecified)
Rattus norvegicus [4]
  inhibition in vivo at 32 mg/kg: 64%
Rattus norvegicus [11]
  ED50: 1.01 mg/kg
Rattus norvegicus [5]
  inhibition in vivo at 16 mg/kg: 59%

## COc1cc2nc3sc(C(=O)O)cn3c(=O)c2cc1OC
Rattus norvegicus [5]
  inhibition in vivo at 16 mg/kg: 89%

## O=C(O)c1cn2c(=O)c3ccccc3nc2s1
Rattus norvegicus [5]
  inhibition in vivo at 16 mg/kg: 80%

## O=C(O)c1ccc2nc3sccn3c(=O)c2c1
Rattus norvegicus [1]
  ED50: > 10 mg/kg
Rattus norvegicus [2]
  inhibition in vivo at 32 mg/kg: 66%
Rattus norvegicus [5]
  inhibition in vivo at 16 mg/kg: 62%

## COc1ccc2nc3sc(C(=O)O)cn3c(=O)c2c1
Rattus norvegicus [12]
  ED50: 0.07 mg/kg
Rattus norvegicus [2]
  inhibition in vivo at 32 mg/kg: 78%
Rattus norvegicus [5]
  inhibition in vivo at 16 mg/kg: 100%

## CC(C)c1ccc2nc3sc(C(=O)O)cn3c(=O)c2c1
Rattus norvegicus [2]
  inhibition in vivo at 32 mg/kg: 86%
Rattus norvegicus [13]
  ED50: 0.33 mg/kg
Rattus norvegicus [3]
  inhibition in vivo at 16 mg/kg: 89%

## O=C(O)c1cn2c(=O)c3cc(C4CC4)ccc3nc2s1
Rattus norvegicus [14]
  ED50: 6.02 mg/kg
Rattus norvegicus [2]
  inhibition in vivo at 32 mg/kg: 100%

## O=C(O)c1cc(=O)c2c(OCC(O)COc3cccc4oc(C(=O)O)cc(=O)c34)cccc2o1 [CROMOLYN SODIUM]
Rattus norvegicus [4]
  inhibition in vivo at 32 mg/kg: 18%
Rattus norvegicus [15]
  inhibition in vivo at 8 mg/kg: 46%
